Results on two compounds are retold here after patent US20170051149A1, “AZOARYLS AS REVERSIBLY MODULATABLE TUBULIN INHIBITORS” (ECOLE NORMALE SUPERIEURE DE LYON, priority 2014, published 2017).

Each structure is given as a SMILES string.

This data set can be described thus: photoisomerisation: photostationary state, calculated φ(λ) and E(λ), reversible cycling. The data set is classed as physicochemical. The procedure:
In a simple analysis of the PSS(λ) and E(λ), it was approximated that ΦEZ and ΦZE (the quantum efficiencies of the photoisomerisations trans->cis and cis->trans, respectively) are equal and independent of wavelength, and also that the kinetics of spontaneous reversion could be ignored (eg. high-intensity light source). A function φ(λ) was then calculated as per: […]
If ΦEZ and ΦZE are equal and independent of wavelength, φ(λ) gives the true PSS(λ). The wavelength independence of ΦEZ and ΦZE may be an acceptable approximation in regions of relatively strong absorption within the visible spectrum. Their equality may also be an acceptable assumption: since if ΦEZ and ΦZE are unequal but only depend weakly on wavelength in regions of relatively strong absorption, then φ(λ) is a transform of the true PSS(λ); this transform preserves the features of PSS(λ) which were most desired for evaluation in this study as long as ΦEZ and ΦZE are not too different (eg less than a factor of ten difference). Indeed, the calculated φ(λ) were later confirmed by in cellulo experiments to give reliable indications of favourable wavelengths for bulk trans->cis and bulk cis->trans photoisomerisation, which is the benchmark for a suitable analysis of the PSS(λ). The advantages of calculating φ(λ) rather than exhaustively measuring the PSS(λ) experimentally are that (a) the throughput is much faster, (b) the true PSS(λ) may be difficult to achieve at weakly-absorbing wavelengths or with fast-relaxing compounds, (c) the true PSS(λ) may be difficult to measure accurately at wavelengths where one isomer strongly dominates the sample even if both are relatively strongly absorbing, and (d) the variation of PSS(λ) with changes in the local biological microenvironment (polarity, pH etc) may anyway be larger than the error incurred by the assumption φ(λ)═PSS(λ).
Also following the assumption that ΦEZ and ΦZE are equal and independent of wavelength, a photoisomerisation efficiency E(λ) was calculated as per:
E(λ)=[εE(λ)+εZ(λ)]/[εE(390)+εZ(390)]
Larger values of E(λ) therefore denote higher efficiency photoisomerisation (less photon flux is required to approach the PSS(λ)). E(λ) was parametrised to the absorption coefficients at 390 nm, since typically that wavelength gave satisfactorily strong absorption and efficient photoisomerisation. It should be noted that E(λ) are not intercomparable between different compounds. This reflects the realistic scenario that the ΦEZ (or the ΦZE) of two arbitrarily chosen compounds may differ by a significant amount, even if the approximation that ΦEZ and ΦZE are equal and independent of wavelength applies independently to each compound.
A(λstrong) was measured over time in the UV-Vis cuvette in non-degassed PBS left open to the atmosphere, […], at 37° C., while the monochromator was used to apply λirrad alternating between two values λ1 and λ2, chosen to induce net trans->cis and net cis->trans isomerisation respectively. Typical results are presented for compound I.1 (FIG. 3). The absorbance of I.1 (18 μM) was measured at λstrong=378 nm, while the irradiating wavelength was held alternately at λ1=388 nm (50 s; bulk trans->cis) then λ2=508 nm (180 s, bulk cis->trans). Higher absorbance corresponds to a greater amount of trans isomer: an absorbance of 0.27 here corresponds to an approximately 5:1 ratio of trans:cis isomer in the sample, and an absorbance of 0.12 here corresponds to an approximately 1:2 ratio of trans:cis isomer in the sample. […] Typically, compounds of the invention could be bulk-photoisomerised hundreds of times over a timescale of hours (50 representative cycles are shown in FIG. 3 for I.1), such that the majority species in a sample was photocontrollably alternated between the trans-isomer and the cis-isomer. […]

With `COc1ccc(N=Nc2cc(OC)c(OC)c(OC)c2)cc1O` [I.1, 2-methoxy-5-((3,4,5-trimethoxyphenyl)diazenyl)phenol], the “E(388)/E(508)” value was 0.04. Also, the “E(λ)” value (390 nm) was 1.00. Besides, the “% cis after photoisomerisation from all-trans” value (390 nm light) is listed as “approx. 90%”. For the setting “410 nm”, the “E(λ)” value is recorded as 0.59. Also, the “% cis after photoisomerisation from all-trans” value (450 nm light) is reported as “approx. 50%”. Where the note is “475 nm”, the “E(λ)” value is recorded as 0.14. Where the note is “490 nm”, the “E(λ)” value was 0.08. Besides, the “E(λ)” value (505 nm) is recorded as 0.04. The “E(λ)” value (525 nm) was 0.02. For the same compound, where the note is “calculated from εE and εZ”, the “φ(490)” value is on record as 0.30 and the “φ(505)” value is 0.23. Besides, for the setting “subsequent 505 nm light”, the “% cis after subsequent irradiation” value is “approx. 20%”.

For the compound `CCN(CC)c1ccc2c(-c3ccccc3C(=O)N3CCN(CCCOc4c(N=Nc5cc(OC)c(OC)c(OC)c5)ccc(OC)c4C)CC3)c3ccc(=[N+](CC)CC)cc-3oc2c1.CCN(CC)c1ccc2c(-c3ccccc3C(=O)N3CCN(CCCOc4c(N=Nc5cc(OC)c(OC)c(OC)c5)ccc(OC)c4C)CC3)c3ccc(=[N+](CC)CC)cc-3oc2c1.O=C[O-].O=C[O-]` [I.25, N-(6-(diethylamino)-9-(2-(4-(3-(3-methoxy-2-methyl-6-((3,4,5-trimethoxyphenyl)diazenyl)phenoxy)propyl)piperazine-1-carbonyl)phenyl)-3H-xanthen-3-ylidene)-N-ethylethanaminium bis(formate) salt], the “% trans” value (irradiation at 554 nm, 33 μM, PBS 20% MeCN, 37° C.) is listed as 100%. For the same compound, the “% cis before photorelaxation” value (state before 550 nm irradiation) is listed as > 70%. The “% trans after photorelaxation” value (very low intensity light of 550 nm) was > 99%.
